This is an account of results in DBAASP.

Values after ≈ are worked out from the molar mass of the structure shown. Values joined by “and” are separate entries in the source; they are usually repeats but may differ in a detail not shown here. Equal values may be shown once. Bounds are passed on as bounds.

Some test systems named below: Bacillus cereus AS1.126; Escherichia coli AS1.349; Vibrio cholerae non-O1; Vibrio cholerae non-O139.
Common to all, as to assay: ≥ marks a high value that may be exact or a test limit, other limits are often not marked, values filed in µg/mL are converted to µM
The subject of assay [1] is Staphylococcus aureus BCRC 10780.
The subject of assay [2] is Streptococcus pneumoniae BCRC 10794.
The test system of assay [3] is Staphylococcus epidermidis PIA 8400.
Assay [4] concerns Staphylococcus aureus ATCC 29213.
Assay [5] concerns Pseudomonas aeruginosa ATCC 27853.
Assay [6] deals with Escherichia coli ATCC 25922.
Assay [7] concerns Enterococcus faecalis ATCC 29212.
The subject of assay [8] is Klebsiella pneumoniae subsp. pneumoniae CGMCC 1.176.
Assay [9] concerns Enterococcus faecium CGMCC 1.2334.
Assay [10] concerns Enterobacter cloacae CGMCC 1.58.
Assay [11] concerns Enterococcus faecalis CGMCC 1.595.
Assay [12] relates to Klebsiella aerogenes CGMCC 1.876.
Assay [13] has as its system Pseudomonas aeruginosa CGMCC 1.860.
Assay [14] relates to Staphylococcus aureus AS1.72.
Assay [15] concerns Lactococcus lactis AS1.1690.
Assay [16] deals with Staphylococcus aureus ATCC 25923.
Assay [17] relates to Salmonella enterica subsp. enterica serovar Typhi DMST 22842.
Assay [18] relates to Staphylococcus epidermidis ATCC 12228.
Assay [19] relates to Cronobacter sakazakii DPC 6440.
For assay [20], the system named is Listeria monocytogenes LO28.
Assay [21] has as its system Staphylococcus aureus ATCC 25023.

A word on the MIC: it is the lowest concentration found to suppress growth. With `CC[C@H](C)[C@H](NC(=O)[C@H](CCSC)NC(=O)[C@H](CCCCN)NC(=O)CNC(=O)[C@H](C)NC(=O)[C@H](Cc1cnc[nH]1)NC(=O)[C@H](Cc1ccccc1)NC(=O)[C@H](CC(C)C)NC(C)=O)C(=O)N[C@@H](Cc1cnc[nH]1)C(N)=O` [LFHAGKMIH], the minimal inhibitory concentration (MIC) in assay [1] and in [2] was at least 94.9 µM each time.
Take `CC[C@H](C)[C@H](NC(=O)[C@H](CCCCN)NC(=O)[C@@H](NC(=O)[C@H](CCCN=C(N)N)NC(=O)[C@H](CCCN=C(N)N)NC(=O)[C@@H](N)CCCN=C(N)N)[C@@H](C)CC)C(=O)N[C@@H](CCCN=C(N)N)C(=O)N[C@@H](Cc1c[nH]c2ccccc12)C(=O)N[C@@H](Cc1ccc(O)cc1)C(N)=O` [RRRIKIRWY]: the MIC in assay [3] was 23 µM and 11.9 µM; in assay [4], 23 µM (≈ 31 µg/mL); in assay [5], 23 µM and 46.8 µM; in assay [6], 23 µM (≈ 31 µg/mL); in assay [7] it was 186 µM (≈ 251 µg/mL).
In the case of `NC(N)=NCCC[C@H](NC(=O)[C@H](Cc1cnc[nH]1)NC(=O)[C@H](Cc1c[nH]c2ccccc12)NC(=O)[C@H](Cc1ccccc1)NC(=O)[C@H](CCCN=C(N)N)NC(=O)[C@H](CCCN=C(N)N)NC(=O)[C@@H](N)Cc1c[nH]c2ccccc12)C(=O)O` [WRRFWHR], the minimal inhibitory concentration (MIC) in assay [8] was at least 100 µM; in [9], 25 µM (≈ 28.6 µg/mL); in [10] it was at least 100 µM; in [11], at least 50 µM; against Bacillus cereus AS1.126 it was 25 µM (≈ 28.6 µg/mL); in assay [12], at least 100 µM. In addition, the MIC with Escherichia coli AS1.349 was 25 µM (≈ 28.6 µg/mL); in assay [13], 25 µM (≈ 28.6 µg/mL); in [14], 25 µM (≈ 28.6 µg/mL); in assay [15], at least 50 µM.
In the case of `NC(=O)[C@H](Cc1c[nH]c2ccccc12)NC(=O)[C@H](Cc1c[nH]c2ccccc12)NC(=O)[C@H](CCCN=C(N)N)NC(=O)[C@H](CCCN=C(N)N)NC(=O)[C@H](Cc1c[nH]c2ccccc12)NC(=O)[C@H](Cc1c[nH]c2ccccc12)NC(=O)[C@H](CCCN=C(N)N)NC(=O)[C@H](Cc1c[nH]c2ccccc12)NC(=O)[C@H](Cc1c[nH]c2ccccc12)NC(=O)[C@@H](N)CCCN=C(N)N` [RWWRWWRRWW], the MIC with Vibrio cholerae non-O1 was 13.1 µM (≈ 23 µg/mL); in the assay with Vibrio cholerae non-O139, 13.1 µM (≈ 23 µg/mL); in [16], over 51.7 µM; in assay [17], at least 51.7 µM; in [18], over 51.7 µM; in [5], 26.1 µM (≈ 46 µg/mL). This compound also had an MIC in assay [6] of over 51.7 µM.
`CC[C@H](C)[C@H](NC(=O)[C@@H](NC(=O)[C@H](CCCCN)NC(=O)[C@@H](NC(=O)[C@H](CCCCN)NC(=O)[C@@H]1CCCN1C(=O)[C@H](CCC(N)=O)NC(=O)[C@H](C)NC(=O)[C@@H](N)Cc1c[nH]c2ccccc12)[C@@H](C)O)C(C)C)C(=O)N1CCC[C@H]1C(=O)N[C@@H](Cc1ccc(O)cc1)C(=O)N[C@H](C(=O)N[C@@H](CCCN=C(N)N)C(=O)N[C@@H](Cc1ccc(O)cc1)C(=O)N[C@@H](CC(C)C)C(=O)O)C(C)C` [WAQPKTKVIPYVRYL]: the MIC in assay [19] and in assay [20] was at least 39.1 µM throughout.
In turn, `CC(C)C[C@H](NC(=O)[C@H](CC(C)C)NC(=O)[C@H](CC(C)C)NC(=O)[C@H](CC(C)C)NC(=O)[C@H](CC(C)C)NC(=O)[C@H](CCCCN)NC(=O)[C@H](CC(C)C)NC(=O)[C@@H](N)CCCN=C(N)N)C(=O)N[C@@H](CCCN=C(N)N)C(=O)N[C@@H](Cc1c[nH]c2ccccc12)C(N)=O` [RLKLLLLLRW] came in with a minimum inhibitory concentration (MIC) in assay [21] of 3.02 µM (≈ 4 µg/mL).
